Experimental findings from patent US20030235860A1, “Interactions between AR, ER, TR2, and TR4” (priority 1999, published 2003) are described below.

One assay relates to MCF7-TR2 cells. As to the kind of experiment: Cell cycle profile by flow cytometry, MCF7-TR2 cells. In kind it is cell-based. The following applies: 3 days, E2, or E2 with doxycycline-induced TR2. The protocol:
(A) Growth assays were performed by MTT method as instructed by manufacturer (Sigma). 5×10^3 MCF7-pBIG and MCF7-TR2 cells were seeded in 24-well plates and incubated in RPMI with 10% CD-FCS for 48 h. […] After 3- and 5-day treatment, cells were harvested for MTT assay. Data represents the relative folds of MTT O.D.570 values at day 5 divided by that at day 3. […] Cells were then trypsinized and fixed overnight in 70% Ethanol. After cells were incubated with 1 mg/ml RNase A (Sigma) and propidium iodide (Roche Molecular Biochemicals), the DNA contents of cells were measured by a flow cytometry. (C) Percentage of growth suppression by TR2. MCF7-TR2 cells were seeded at 5×10^3 cells per well in 24-well plates. […] The treatments were changed every two days. The indices of cell growth were determined by MTT assay. The MTT values from cells without doxycycline were set as 100% in each kind of treatment. Values are represented by the percentage of growth suppression from cells with doxycycline to that without doxycycline.
Background: In flow cytometry, cells or beads pass a laser one at a time.

The test system of another assay is cyclin D1. In words: Western blot of cyclin D1 in MCF-7-TR4 cells. The assay is classed as cell-based. The note with it: 10 nM E2, Dox. As for the experimental part: MCF-7-TR4 or MCF-7-pBIG cells were cultured in DMEM containing 10% charcoal dextran-treated FBS for 3 days and then 1×10^6 cells were seeded on 100-mm dishes. […] The lysate protein amount was quantitated by Bradford assay (Bio-Rad, Hercules, Calif.) with bovine serum albumin as a reference standard. One hundred μg protein was loaded and after electrophoresis on 10% SDS-PAGE was transferred onto Immobulin (Milipore, Bedford, Mass.). The membrane was blotted with anti-cyclin D1 rabbit polyclonal Ab (H-295) (Santa Cruz). Alkaline phosphatase conjugated secondary Ab was used.

For a further assay, the system named is MCF-7-TR4 cells. As to the kind of experiment: MCF-7 cells growth assay (cell counting). The assay is classed as cell-based. The note with it: MCF-7-TR4 cells (E2 also in MCF-7-pBIG); 10 nM E2; Dox. The protocol:
MCF-7-TR4 and MCF-7-pBIG cells, which were deprived of estrogen by culturing in phenol-free DMEM medium supplement with 10% charcol-stripped FBS for 4 days, were plated at 10^4 cells/well into 24-well plate. […] Cells were trypsinized at the specified time points and counted with a hemocytometer to determine cell density per sample.

The next assay concerns PR. In words: Endogenous PR expression in T47D cells (Northern / Western). The note with it: T47D cells; 10 nM E2, 24 h. In kind it is cell-based, human. The protocol:
The method was used as previously described, Lee & Chang. (1996) J. Biol. Chem. 271. 10405-10412, with some modifications. Briefly. 5 μg of pCMV-TR2 was transiently transfected into T47D cells and lysed in RIPA buffer (10 mM sodium phosphate, pH 7.0. 150 mM NaCL, 2 mM EDT A. 1% (w/v) Nonidet P-40, 0.1% (w/v) SDS. 1% (w/v) sodium deoxycholate) with freshly adding proteinase inhibitors. The soluble protein was quantified using the Bio-Rad Protein Assay reagent (Bio-Rad Laboratories) and 50 μg soluble proteins were loaded onto SDS/10% PAGE and then transferred to Immobion-P transfer membrane (Millipore). After the blocking reaction overnight, the membrane was incubated with […] anti-PR polyclonal antibody (H-190. Santa Cruz) in PBS(−) containing 0.1% Skim milk for 2 h at room temperature. The membrane was washed and then incubated in 15 μCi 125I] of protein-A (DuPont NEN)/30 ml of PBS(−) containing 0.1% Skim milk for 1 h at room temperature. The western blots were autoradiographed and quantitated by using Phosphorlmager.
RNA isolation and Northern blot analysis were performed as previously described. Young, et al., J. Biol. Chem. 273,20877-20885 (1998).
Next it was determined if TR2 could repress the ER endogenous target gene expression. PR was chosen because it is well studied as an E2-ER target gene in T47D cells. Misrahi et al., Biochem. Biophys. Res. Commun. 143, 740-748 (1987). […] Cells were then used for RNA isolation (Northern blot analysis) and lysate protein extraction (Western blot analysis). For RNA analysis, total RNAs were isolated, and Northern blots were performed using [32P] labeled PR cDNA probes. The membrane was autoradiographed. For Protein Western blot analysis, cells lysates were prepared and PR proteins were visualized by radioimmunoblot. The membrane was autoradiographed to Phosphorimager and was quantitated by ImageQuant software.

Assay [1] deals with T1, TR4 LBD (row label of Table 4) (human, UniProt P49116 205-596).
T1 construct: not shown: Fusion partner: GST in the pull-down with ER, GAL4-DBD in the hybrid assays with AR
T1 sequence: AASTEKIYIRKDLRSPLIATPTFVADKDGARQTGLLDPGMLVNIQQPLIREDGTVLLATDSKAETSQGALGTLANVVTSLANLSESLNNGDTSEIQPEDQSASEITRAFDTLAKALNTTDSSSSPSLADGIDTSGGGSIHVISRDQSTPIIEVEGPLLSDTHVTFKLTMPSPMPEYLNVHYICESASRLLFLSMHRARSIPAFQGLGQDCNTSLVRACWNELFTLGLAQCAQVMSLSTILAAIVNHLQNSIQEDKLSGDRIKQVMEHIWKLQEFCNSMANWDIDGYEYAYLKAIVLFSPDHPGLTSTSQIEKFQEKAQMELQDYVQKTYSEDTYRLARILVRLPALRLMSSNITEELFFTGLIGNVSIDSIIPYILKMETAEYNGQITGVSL
In words: Table 4, summary of interactions tested; assay not given.

The target in assay [2] is T2, TR4 orphan receptor (TR4), full-length (human, UniProt P49116 1-596).
T2 construct: Full-length TR4; 35S-labeled when in vitro translated, expressed from plasmids in the cell assays; also called pCMX-TR4; pCMV-TR4
T2 sequence: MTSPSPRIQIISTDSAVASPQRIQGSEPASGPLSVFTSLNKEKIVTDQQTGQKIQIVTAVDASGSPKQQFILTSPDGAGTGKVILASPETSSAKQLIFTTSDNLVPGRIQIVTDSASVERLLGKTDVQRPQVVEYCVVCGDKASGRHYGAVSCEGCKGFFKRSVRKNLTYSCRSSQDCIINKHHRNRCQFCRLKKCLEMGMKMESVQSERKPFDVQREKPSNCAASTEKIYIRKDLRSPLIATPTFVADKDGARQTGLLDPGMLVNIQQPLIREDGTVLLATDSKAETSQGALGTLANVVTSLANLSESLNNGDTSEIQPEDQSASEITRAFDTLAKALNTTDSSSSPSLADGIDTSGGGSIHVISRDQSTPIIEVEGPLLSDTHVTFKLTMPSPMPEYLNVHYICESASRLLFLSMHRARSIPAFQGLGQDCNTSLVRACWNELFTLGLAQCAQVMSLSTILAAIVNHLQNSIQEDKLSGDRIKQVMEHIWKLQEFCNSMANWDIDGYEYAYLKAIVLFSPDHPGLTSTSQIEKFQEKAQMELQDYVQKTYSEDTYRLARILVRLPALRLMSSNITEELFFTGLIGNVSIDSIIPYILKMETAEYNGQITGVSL
The description is as above.

In the case of `C[C@]12CC[C@@H]3c4ccc(O)cc4CC[C@H]3[C@@H]1CC[C@@H]2O` [E2, 17β-estradiol, reference compound], in the assay on MCF7-TR2 cells, the “Cells in G1” value is recorded as 37.4% and the “Cells in S” value was 23.6%. Besides, the “Cyclin D1 expression” value in the assay with cyclin D1 was “induced cyclin D1 expression”. The “Cell growth (cell number)” value in the assay on MCF-7-TR4 cells is reported as “stimulated cell growth”. In the assay on PR, the “Induction of PR mRNA expression” value was “about 3 fold”.

B1: ER LBD 282-595 (column label of Table 4) (receptor, not shown: large carriers)
chain: SAGDMRAANLWPSPLMIKRSKKNSLALSLTADQMVSALLDAEPPILYSEYDPTRPFSEASMMGLLTNLADRELVHMINWAKRVPGFVDLTLHDQVHLLECAWLEILMIGLVWRSMEHPVKLLFAPNLLLDRNQGKCVEGMVEIFDMLLATSSRFRMMNLQGEEFVCLKSIILLNSGVYTFLSSTLKSLEEKDHIHRVLDKITDTLIHLMAKAGLTLQQQHQRLAQLLLILSHIRHMSNKGMEHLYSMKCKNVVPLYDLLLEMLDAHRLHAPTSRGGASVEETDQSHLATAGSTSSHSLQKYYITGEAEGFPATV
B1: the binding result in assay [1] and in assay [2] was “binds” each time.
